The source of these data is patent US20260325655A1, “DECREASING THE INTRINSICALLY DISORDERED PROTEIN ALPHA-SYNUCLEIN’S LEVELS BY TARGETING ITS STRUCTURED MRNA WITH A RIBONUCLEASE TARGETING CHIMERA” (University of Florida Research Foundation, Incorporated, priority 2023, published 2026).

Common to all, as to format: cell-based, human
Assay [1] relates to SNCA mRNA. Put plainly: SNCA mRNA cleavage after siRNA knock-down of RNase L in SH-SY5Y cells. How it is done:
(§1) RNA extraction and reverse transcription-quantitative polymerase chain reaction (RT-qPCR). Total RNA was extracted from cells using a Quick-RNA MiniPrep Kit (Zymo Research) per the manufacturer's protocol including DNase treatment. For each sample, 200 ng of RNA was reverse transcribed into cDNA by using a qScript cDNA Synthesis Kit (QuantaBio) according to the manufacturer's instructions. To assess the relative mRNA levels, RT-qPCR was performed in triplicate using SYBR Green PCR mater mix (Applied Biosystems) with a Quant Studio 5 Real-Time PCR system. The relative levels of mRNA were calculated by using the ΔΔCt method as previously described.^8
Transfection of siRNAs. The siRNAs were purchased from commercial sources as listed in General information. The α-synuclein siRNA (final concentration of 200 nM) or RNase L siRNA (final concentration of 50 nM) were transfected into SH-SY5Y cells (at ~60% confluency in 12-well plates) by using the Lipofectamine RNAiMax (Life technologies) per manufacturer's protocol.

The subject of another assay is APP mRNA. Put plainly: APP mRNA in SH-SY5Y cells by RT-qPCR. How it is done:
as §1

Another assay relates to SH-SY5Y cells. In words: transcriptome-wide RNA-seq in SH-SY5Y cells. The settings on record: for inhibition at 2 µM: Homo sapiens, not statistically significant. How it is done:
RNA-seq analysis. Total RNA was quantified using the Qubit 2.0 Fluorometer (Invitrogen) and an Agilent 2100 Bioanalyzer RNA nano chip. Samples with RIN>9.0 were proceeded to library preparation using NEBNext Ultra II Directional RNA Kit (Cat. #E7760, NEB) following manufacture's protocol. Briefly, 200 ng of total RNA was depleted of ribosomal RNA using the NEBNext rRNA Depletion Module. The product was chemically fragmented using NEBNext Magnesium RNA Fragmentation Module (E6150S, NEB) the at 94° C. for 15 min. First-strand synthesis was performed with random primers, and second strand was synthesized with dUTP in place of dTTP. After end repair and 3′ adenylation, the cDNA was ligated with adaptors and then treated with USER enzyme (Uracil-specific excision reagent). The product was PCR amplified with Illumina-barcoded primers to generate the cDNA libraries. The final libraries were analyzed on the bioanalyzer DNA chips, pooled in equimolar ratios, and loaded onto the NextSeq 500 v2.5 flow cell and sequenced with 2×40 bp paired-end chemistry. The raw data were aligned to the human genome using STAR.^11 Read counts were extracted using featureCounts,^12 and the differential gene analysis was performed using Deseq2.^13

A further assay has as its system TfR mRNA. Put plainly: TfR mRNA in SH-SY5Y cells by RT-qPCR. How it is done: as §1
In general terms: Quantitative PCR measures a nucleic acid by following its amplification.

Assay [2] relates to control luciferase reporter lacking an IRE. In words: control luciferase reporter lacking an IRE. As to conditions: reporter lacks IRE / SNCA-UTR sequence. From the text:
(§2) Plasmid constructs and establishment of reporter gene overexpressing cells. Construction of pIRES-Luc-EGFP-puro plasmid and pCDH-α-syn-5′-UTR-Luc-EGFP-puro plasmid used in 5′ UTR-luciferase-based selectivity assay were previously described.^4 Briefly, In-Fusion PCR cloning system (Takara Bio, Mountain View, CA, USA) was used for all plasmid constructions per the manufacturer's instructions. To ensure sequence accuracy, all plasmids generated in this study were confirmed by sequencing.
(§3) Luciferase assay. The effect of compounds on translation of SNCA IRE-containing transcript was measured by using a luciferase reporter assay. HeLa cells (~60% confluency) were transfected with plasmids (2 μg per 60 mm dish) by using JetPrime (Polyplus Transfection) according to the manufacturer's recommended procedures. Approximately 16 h after transfection, the transfection cocktail was removed, and the cells were trypsinized and seeded to 96-well plates (8,000 cells per well). After 6 h, cells were treated as described in Cell Culture. To measure the luciferase signals, the cells were then washed with 1× DPBS, and luciferase activity in each well was measured by using the ONE-Glo Luciferase Assay System (Promega) per the manufacturer's instructions. Luminescence from firefly luciferase reaction was measured using a Biomek FLx800 plate reader.
In general terms: Reporter assays use an easily measured gene product as a stand-in for the process of interest.

Assay [3] deals with SNCA IRE-luciferase reporter. In words: wash-out experiment using the luciferase reporter assay. As to conditions: 16 h after compound removal; 2 μM.
Text: as §2, §3

Assay [4] relates to SNCA mRNA. In words: competition of Synucleozid-2.0 with Syn-RiboTAC in SH-SY5Y cells. As to conditions: Synucleozid-2.0 0.1-10 μM; Syn-RiboTAC constant 2 μM. How it is done: Syn-RiboTAC's activity is RNase L-dependent. To validate mode of action, RNase L was knocked down in SH-SY5Y cells with a pool of siRNAs (FIG. 5C), followed by treatment with Syn-RiboTAC. […] Syn-RiboTAC and Synucleozid-2.0 were validated to engage the same binding site in cells by a competition experiment using a constant concentration of Syn-RiboTAC(2 μM) and varying concentrations of Synucleozid-2.0 (0.1-10 μM).
as §1

Where [5] appears, read: of 447 detectable IRE-containing mRNAs.

Where two headings read alike, the source gives them in different places.

As for `CCOC(=O)C1=C(Nc2ccccc2)S/C(=C\c2ccc(OCCOCCOCCOCCNC(=O)CCCOc3ccc(-n4c(SCC(=O)Nc5ccc6cn[nH]c6c5)nnc4-c4ccncc4)cc3)c(O)c2)C1=O` [Syn-RiboTAC], the “effect of scrambled control siRNA on Syn-RiboTAC activity” value with SNCA mRNA [1] (scrambled control siRNA) is on record as “No significant effect on activity”. Besides, the “effect on SNCA mRNA after RNase L knock-down” value in the assay with SNCA mRNA [1] (siRNA pool against RNase L) is reported as “ablated the effect of Syn-RiboTAC on SNCA mRNA”. In the assay on APP mRNA, the “effect on APP mRNA level” value is recorded as “None of the three transcripts was affected”. Moreover, in the assay with SH-SY5Y cells (2 μM, of 30,175 genes detected), the “number of genes downregulated” value amounted to 34, the “number of genes upregulated” value is 14 and the “percent of genes affected” value was determined as 0.16%. Further, in the assay on SH-SY5Y cells (2 μM, of 30,175 genes detected, log 2fold change >0.58, p<0.05), the “number of genes affected” value is given as 48. In the assay on SH-SY5Y cells (SH-SY5Y, RNA-seq, read-out: reduction of BLVRB transcript level), the inhibition at 2 µM is approximately 20%. Moreover, the inhibition at 2 µM in the assay on SH-SY5Y cells (SH-SY5Y, RNA-seq, read-out: reduction of SNCA transcript abundance by RNA-seq) was approximately 35%. For the same compound, the “APP, ferritin, and TfR transcript levels in the RNA-seq data” value with SH-SY5Y cells (RNA-seq, SH-SY5Y) is “unaffected”. Moreover, in the assay with SH-SY5Y cells (of 38 Chem-CLIP-bound transcripts detected in RNA-seq, including SNCA), the “number of bound transcripts whose levels were reduced (cleaved)” value is on record as “four”. For the same compound, in the assay on SH-SY5Y cells (setting [5]), the “number of IRE-containing mRNAs affected” value came out at 19, the “number of IRE-containing mRNAs downregulated” value is 11 and the “number of IRE-containing mRNAs upregulated” value came to 8. Also, the “effect on TfR mRNA level” value in the assay with TfR mRNA is given as “None of the three transcripts was affected”. Also, the “inhibition in the control luciferase reporter” value in assay [2] is reported as “Neither compound showed inhibition”.
`O=C(CSc1nnc(-c2ccncc2)n1-c1ccc(Br)cc1)Nc1ccc2cn[nH]c2c1` [Synucleozid-2.0]: the “activity after wash-out (in words)” value in assay [3] is “inactive”. For the same compound, in the assay with SNCA mRNA [4], the “SNCA mRNA levels in competition experiment” value is “dose-dependent restoration of SNCA mRNA levels”.
